For data set [1], the system named is HCA-7 and HT-29 colon cancer cells. Kind of data set: Effect of agents on growth of colon cancer cells, range stated over both lines. The format is cell-based. The conditions noted are these: Homo sapiens, 168 h, read-out: IC50 values (cell growth), range over both agents and both cell lines. As for the experimental part: (§1) Cells were seeded (10^4 per well) in 24-well plates and cultured in DMEM containing Glutamax I (Life Technologies, Paisley, UK) and glucose (4.5 g l^−1) and 10% foetal calf serum (Gibco, Paisley, UK). […] Cells were counted 72, 96, 120, 144 and 168 h postaddition of agents using a Z2 Coulter Particle Count and Size Analyzer (Beckman Coulter, High Wycombe, UK). Control cultures contained the vehicle only. […] The IC50 values inserted in Figure 5 were calculated from the linear portion of the cell number-vs agent concentration curves at the 168 h time point.

Data set [2] deals with transformed human lung-derived cells. Also noted: method as in Lu et al, 2001. The conditions noted are these: ref Lu et al, 2001; cited from earlier work.
The nature of data set [3]: Incubation with mouse liver microsomes. In kind it is in vitro ADME. The conditions noted are these: mouse liver microsomes 0.5 mg protein ml^−1, NADPH 1 mM, substrate 1 mM, 20 min, 37°C. The protocol:
Microsomes were prepared by differential centrifugation of mouse liver homogenate first at 9 × 10^3 g (20 min, 4°C), then at 10^5 g (1 h) in a Beckman L-8-60 ultracentrifuge (Beckman Coulter UK Ltd, High Wycombe, Buckinghamshire, UK). The microsomal pellet was suspended in Tris buffer (50 mM, pH 7.4), recentrifuged at 10^5 g (1 h) and resuspended in Tris buffer. Liver microsomes from two to four mice were pooled. […] The addition of one volume of ice-cold methanol terminated the reaction. The mixture was vortexed (30 s), centrifuged (3 min, 13 400 g) and the supernatant was collected and analysed by HPLC.
(§2) HPLC analysis was performed using a Varian Prostar HPLC system (Varian, UK) with a Pro-Star 230 solvent delivery system, a Pro-Star 310 UV–Vis detector, a Pro-Star 363 Fluorescence detector, a 410 Varian autosampler and an Ultracarb C18 column (4.6 mm × 250 mm, 5 μm, Phenomenex, UK). The mobile phase consisted of the three components: aqueous ammonium acetate (pH 6.5, 50 mM), propan-2-ol and acetonitrile. […] The flow rate for both methods was 1 ml min^−1.
(§3) The injection volume of samples reconstituted in the mobile phase was 50 μl.
On the technique in general: Microsomes from liver hold many membrane-bound enzymes, among them those of drug oxidation.

The format of data set [4] is in vivo, mouse. The conditions noted are these: agents at 0.2% in the diet for 2 weeks; result not shown. As for the experimental part: ). Both agents were rapidly cleared from blood and tissues within an hour of administration (Figure 3). […] DMU 212 levels reached a peak after 10 min, except in the case of the colon, in which the peak occurred after 30 min. The peak levels for DMU 212 were 5 μM in the plasma and 8, 11, 11, 5, 10, 7600 and 330 nmols g^−1 tissue in the liver, kidney, lung, brain, heart, small intestinal and colonic mucosae, respectively. We performed a preliminary experiment in order to explore whether the difference in gastrointestinal levels would also be observed when the agents are administered with the diet, the route often used in preclinical cancer chemoprevention studies. Agents were admixed with the diet at 0.2% and fed for 2 weeks.

The subject of data set [5] is HT-29 colon cancer cells. Kind of data set: Effect of agents on growth of HT-29 cells. The format is cell-based. The conditions noted are these: Homo sapiens, read-out: IC50 (cell growth). As for the experimental part: as §1
Data set [6] can be described thus: Plasma and tissue levels in mice after a single intragastric dose. The conditions noted are these: for peak concentration / AUC: mice, 240 mg/kg i.g.; for AUC: 0-120 min. The format is in vivo, mouse. The protocol: Animal experiments were conducted as stipulated by Project Licence 40/2496 granted by the UK Home Office. Experiments were vetted and approved by the Leicester University Animal Welfare Committee and complied with the UKCCCR guidelines for the welfare of animals in experimental neoplasia. […] The vehicle was glycerol formal, and the dose volume approximately 10 ml kg^−1. In the case of DMU 212, the vehicle also contained 10% DMSO. Mice were killed by terminal gaseous anaesthesia at 10, 30, 60 or 120 min postdosing. Blood was collected by cardiac puncture, and plasma was obtained by centrifugation. The liver, kidney, lung, heart, brain and gut were excised, and scrapings were obtained from small intestine and colon. Tissues were snap-frozen (liquid nitrogen) and stored at −80°C until analysis.
Tissues were homogenised (1 : 1 volume to tissue mass ratio) in 50 mM Hepes buffer (Sigma, Poole, UK) using a hand-held glass homogeniser. An aliquot (250 μl) of homogenate, to which an internal standard had been added was vortexed, followed by the addition of acetonitrile (1 ml). After vigorous shaking, mixtures were kept on ice (5–10 min) and centrifuged (2800 g, 10 min, 4°C). The supernatants were dried under a stream of nitrogen and reconstituted in mobile phase (100 μl).
as §2, §3
The curves were characterised by regression coefficients of R^2=0.99 or above. […] Therefore, metabolites were not quantitated.
The area under the plasma or tissue concentration vs time curve (AUC) values were calculated using the trapezoidal rule (WinNonlin v.1.1, Scientific Consultants, USA).

A short description of data set [7]: Metabolite characterisation in plasma and tissues of dosed mice. The conditions noted are these: 240 mg/kg i.g., HPLC cochromatography and mass spectrometry. The format is in vivo, mouse.
Method: The vehicle was glycerol formal, and the dose volume approximately 10 ml kg^−1. […] Mice were killed by terminal gaseous anaesthesia at 10, 30, 60 or 120 min postdosing. Blood was collected by cardiac puncture, and plasma was obtained by centrifugation. The liver, kidney, lung, heart, brain and gut were excised, and scrapings were obtained from small intestine and colon. Tissues were snap-frozen (liquid nitrogen) and stored at −80°C until analysis.
Tissues were homogenised (1 : 1 volume to tissue mass ratio) in 50 mM Hepes buffer (Sigma, Poole, UK) using a hand-held glass homogeniser. […] After vigorous shaking, mixtures were kept on ice (5–10 min) and centrifuged (2800 g, 10 min, 4°C). The supernatants were dried under a stream of nitrogen and reconstituted in mobile phase (100 μl).
HPLC analysis was performed using a Varian Prostar HPLC system (Varian, UK) with a Pro-Star 230 solvent delivery system, a Pro-Star 310 UV–Vis detector, a Pro-Star 363 Fluorescence detector, a 410 Varian autosampler and an Ultracarb C18 column (4.6 mm × 250 mm, 5 μm, Phenomenex, UK). […]
Mass spectrometry was performed using a Quattro Bio-Q tandem quadrupole mass spectrometer upgraded to Quattro MK II specifications (Micromass, Manchester, UK) with a pneumatically assisted electrospray interface. Samples were analysed in positive ion mode.
Data set [8] has as its system HCA-7 colon cancer cells. Kind of data set: Effect of agents on growth of HCA-7 cells. In kind it is cell-based. The conditions noted are these: Homo sapiens, 168 h time point, cell counts. As for the experimental part:
as §1

The conditions of data set [9]: rats, ref Verschoyle et al, unpublished, cited from earlier work.
[10] abbreviates: plasma and tissues (for DMU 212 except colon), 10 min was the first time point.

Where two headings read alike, the source gives them in different places.

For orientation: IC50 means the point on the concentration scale where inhibition reaches its midpoint. Regarding `COc1ccc(C=Cc2cc(OC)c(OC)c(OC)c2)cc1` [DMU 212, 3,4,5,4′-tetramethoxystilbene], the IC50 in data set [1] is 6 to 26 µM; in data set [5] (HT-29, 168 h), 11.3 ± 1.1 µM; in data set [8] it was 6 ± 0.2 µM. In data set [2], the “concentration required to cause significant arrest of transformed lung cell growth in vitro” value is 10 µM. Also, the “microsomal biotransformation (HPLC peaks besides parent)” value in [3] is on record as “afforded peaks in addition to that of parent DMU 212”. In data set [4], the “colonic levels of DMU 212 relative to those of resveratrol” value was “two-fold”. Moreover, the peak concentration in data set [6] (brain) amounted to 5 nmols g^−1 tissue; in data set [6] (colonic mucosa) it was 330 nmols g^−1 tissue; in data set [6] (heart), 10 nmols g^−1 tissue; in [6] (kidney), 11 nmols g^−1 tissue; in [6] (liver), 8 nmols g^−1 tissue; in data set [6] (lung) it was 11 nmols g^−1 tissue. The results for the peak concentration in [6] (plasma) and in data set [6] (small intestinal mucosa) were 5 µM and 7600 nmols g^−1 tissue, respectively. The AUC in data set [6] (brain) is 193 nmoles ml^−1 or g^−1 min; in data set [6] (colonic mucosa), 19 256 nmoles ml^−1 or g^−1 min; in data set [6] (heart) it was 750 nmoles ml^−1 or g^−1 min; in data set [6] (intestinal mucosa), 369 315 nmoles ml^−1 or g^−1 min; in [6] (kidney), 566 nmoles ml^−1 or g^−1 min; in data set [6] (liver), 432 nmoles ml^−1 or g^−1 min. The AUC is recorded as 778 nmoles ml^−1 or g^−1 min in data set [6] (lung) and 246 nmoles ml^−1 or g^−1 min in data set [6] (plasma). Also, the “time at which levels peaked” value is 30 min in data set [6] (colon) and 10 min in [6] (setting [10]). Moreover, the “factor by which peak level exceeded the concentration arresting transformed lung cell growth (10 μM)” value in [6] (small intestinal mucosa) was determined as 760. For the same compound, in data set [7], the “metabolism in mice in vivo” value was “underwent metabolic hydroxylation or single and double O-demethylation”. Also, the toxicity result in data set [9] (single doses of up to 40 mg kg^−1 i.v.) and in [9] (single doses of up to 400 mg kg^−1 p.o.) was “devoid of any toxicity” each time.

As to `Oc1ccc(/C=C/c2cc(O)cc(O)c2)cc1` [resveratrol, trans-3,5,4′-trihydroxystilbene, reference compound], the half-inhibitory concentration (IC50) in data set [1] (HCA-7 and HT-29 cells) is 6 to 26 µM; in data set [5] (HT-29 cells, 168 h time point, cell counts), 19.9 ± 0.3 µM. In addition, in data set [3], the “microsomal biotransformation (HPLC peaks besides parent)” value is “did not yield any peak in addition to that of the parent substrate”. Also, the peak concentration in [6] (brain) was 1.2 nmols g^−1 tissue; in data set [6] (colonic mucosa) it was 30 nmols g^−1 tissue; in [6] (heart), 75 nmols g^−1 tissue; in data set [6] (kidney) it was 16 nmols g^−1 tissue; in data set [6] (liver), 51 nmols g^−1 tissue; in [6] (lung) it was 50 nmols g^−1 tissue. For the same compound, the peak concentration in data set [6] (plasma) was found to be 32 µM; in [6] (small intestinal mucosa), 960 nmols g^−1 tissue. For the same compound, the AUC in data set [6] (brain) is listed as 103 nmoles ml^−1 or g^−1 min; in [6] (colonic mucosa), 2869 nmoles ml^−1 or g^−1 min; in [6] (heart) it was 2072 nmoles ml^−1 or g^−1 min; in data set [6] (intestinal mucosa), 36 690 nmoles ml^−1 or g^−1 min; in data set [6] (kidney), 785 nmoles ml^−1 or g^−1 min; in [6] (liver) it was 2150 nmoles ml^−1 or g^−1 min. Also, the AUC in data set [6] (lung) is on record as 1123 nmoles ml^−1 or g^−1 min; in data set [6] (plasma), 863 nmoles ml^−1 or g^−1 min. The “time at which levels peaked” value in [6] (setting [10]) turned out to be 10 min.
